One assay relates to endothelin-3. The assay can be described thus: Effect against airway contraction due to endothelin in anesthetized guinea pigs. Particulars: guinea pig; for Rate of inhibition (%) of airway contraction, earlier phase 30 seconds: 30 seconds after endothelin-3; for Rate of inhibition (%) of airway contraction, later phase 3 minutes: 3 minutes after endothelin-3. It counts as in vivo. As for the experimental part: The in vivo effect of the compounds according to the present invention against airway contraction was evaluated according to a slightly modified version of the method of C. Touvay et al. described in European Journal of Pharmacology, 176, 23-33, 1990. That is, male Hartley guinea pigs weighing 350 to 550 grams each which had been previously β-blocked by intravenous injection of propranolol (3 mg/kg) were anesthetized, bronchial cannula were inserted therein and fixed, and connected to an artificial respirator. Next, spontaneous breathing was stopped with 10 mg/kg Gallamine triethiodide (product of sigma Co.), administered intravenously after which artificial respiration was initiated at a determined rate. A respiration volume measuring device was connected to the bronchial cannula bypass, and the change in the air flow was measured as an indication of airway contraction. Endothelin-3 (1.5 μmol/l; product of Peptide Institute, Inc.) was intravenously injected at a dose of 0.1 ml per 100 g body weight. Airway contraction (air flow increase) was observed immediately after injection, and was followed by a diphasic airway contraction reaction with an early and late phase which peaked at 30 seconds and 3 minutes, respectively.
Rate of inhibition (%)=(1−b/a)×100 a: Airway contraction without injection of Compound (I-1) (control) b: Airway contraction with injection of Compound (I-1)

The target in assay [1] is T1, endothelin receptor (Bos taurus, UniProt P28088).
T1 construct: from tissue; host or cells: bovine cerebellar membrane fraction
T1 sequence (P28088 27-441): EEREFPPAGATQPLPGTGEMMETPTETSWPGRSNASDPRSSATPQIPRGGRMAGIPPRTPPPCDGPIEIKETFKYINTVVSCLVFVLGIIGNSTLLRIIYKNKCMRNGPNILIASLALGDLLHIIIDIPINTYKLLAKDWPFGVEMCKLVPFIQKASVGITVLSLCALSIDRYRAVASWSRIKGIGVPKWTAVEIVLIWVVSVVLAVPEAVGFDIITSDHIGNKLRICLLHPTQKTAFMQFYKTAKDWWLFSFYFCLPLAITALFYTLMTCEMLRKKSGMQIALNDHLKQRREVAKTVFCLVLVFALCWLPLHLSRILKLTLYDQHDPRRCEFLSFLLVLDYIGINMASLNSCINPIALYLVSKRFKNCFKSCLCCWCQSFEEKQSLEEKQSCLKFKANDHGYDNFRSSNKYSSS
The assay can be described thus: Endothelin receptor-antagonizing effect: 125I-endothelin-1 binding to bovine cerebellar tissue membrane fraction.

In assay [2] the target is T2, endothelin receptor (Bos taurus, UniProt P21450).
T2 construct: the suspension was used as the membrane fraction liquid; from tissue
T2 sequence (P21450 21-427): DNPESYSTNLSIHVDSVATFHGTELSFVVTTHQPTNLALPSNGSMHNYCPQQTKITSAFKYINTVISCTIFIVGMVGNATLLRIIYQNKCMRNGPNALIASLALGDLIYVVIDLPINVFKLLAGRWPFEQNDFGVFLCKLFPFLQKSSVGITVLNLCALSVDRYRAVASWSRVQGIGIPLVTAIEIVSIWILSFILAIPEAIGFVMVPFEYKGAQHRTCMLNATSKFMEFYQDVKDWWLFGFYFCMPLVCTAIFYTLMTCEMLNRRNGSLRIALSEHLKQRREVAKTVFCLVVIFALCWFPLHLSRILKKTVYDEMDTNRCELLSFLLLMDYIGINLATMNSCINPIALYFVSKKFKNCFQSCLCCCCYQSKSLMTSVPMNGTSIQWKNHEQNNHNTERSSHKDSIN
The assay can be described thus: Endothelin receptor-antagonizing activity: 125I-endothelin-1 binding to bovine lung membrane fraction with […] Compound (I-1) added. The protocol: Bovine lung tissue was homogenized at 4° C. using POLYTRON (type PT10/35, manufactured by Kinematica GmbH Co.) in a buffer solution A (pH 8.3) comprising 1 mM NaHCO3, 5 mM ethylenediaminetetraacetic acid, 5 μg/ml leupeptin, 5 μg/ml pepstatin A and 40 μM phenylmethylsulfonyl fluoride.
The inhibition rate against endothelin receptor binding activity was calculated according to the following equation.
Inhibition rate=(C−A/C−B)=100 (%)

The target of assay [3] is endothelin receptor of bovine cerebellar tissue (membrane fraction) (bovine). The assay can be described thus: 125I-endothelin-1 displacement, bovine cerebellar membrane fraction.
For assay [4] the target is unchanged. The description is as above. The source holds these as a separate data set.
Assay [5] has as its target endothelin receptor of bovine lung tissue (membrane fraction) (bovine). As to the kind of experiment: 125I-endothelin-1 displacement, bovine lung membrane fraction with 1.5 ug/ml Compound (I-1) added.

Where two headings read alike, the source gives them in different places. Bridge positions count the residues as written; N and C are the ends. Square brackets hold non-standard residues; d marks the D form. Ends that are not written are not given here. 2Nal = N[C@@H](Cc1ccc2ccccc2c1)C(=O)O

By IC50 is commonly meant the midpoint of a concentration-inhibition curve. Read a low IC50 as higher potency.

`C[C@@H]1NC(=O)[C@H]([C@@H](C)O)NC(=O)CNC(=O)[C@H](Cc2c[nH]cn2)NC(=O)[C@H](Cc2c[nH]c3ccccc23)NC(=O)[C@H](CC(N)=O)NC(=O)CNC(=O)C[C@@H](C(=O)N[C@@H](Cc2c[nH]c3ccccc23)C(=O)N[C@@H](Cc2ccccc2)C(=O)N[C@@H](Cc2ccccc2)C(=O)N[C@@H](CC(N)=O)C(=O)N[C@@H](Cc2ccc(O)cc2)C(=O)N[C@@H](Cc2ccc(O)cc2)C(=O)N[C@@H](Cc2c[nH]c3ccccc23)C(=O)O)NC(=O)[C@@H]2CCCN2C1=O` [Compound I-1]: the figures for the “Rate of inhibition (%) of airway contraction, earlier phase 30 seconds” value with endothelin-3 (0.1 mg/kg i.v.), in the assay with endothelin-3 (0.3 mg/kg i.v.) and in the assay with endothelin-3 (1.0 mg/kg i.v.) were 12.5%, 46.0% and 91.8%, respectively. Also, the “Rate of inhibition (%) of airway contraction, later phase 3 minutes” value was 44.0% with endothelin-3 (0.1 mg/kg i.v.), 52.7% in the assay on endothelin-3 (0.3 mg/kg i.v.) and 78.2% in the assay with endothelin-3 (1.0 mg/kg i.v.). Take `CC[C@H](C)[C@H](NC(=O)[C@H](CC(=O)O)NC(=O)[C@H](CC(C)C)NC(=O)[C@H](Cc1c[nH]cn1)NC(=O)[C@H](C)NC(=O)[C@H](Cc1ccccc1)NC(=O)[C@H](Cc1ccc(O)cc1)NC(=O)[C@@H](NC(=O)[C@H](Cc1c[nH]c2ccccc12)NC(=O)[C@H](CC(=O)O)NC(=O)[C@@H]1CCCN1C(=O)[C@H](C)NC(=O)[C@@H](NC(=O)CNC(=O)[C@H](Cc1c[nH]cn1)NC(=O)[C@H](Cc1c[nH]c2ccccc12)NC(=O)[C@H](CC(=O)O)NC(=O)CN)[C@@H](C)O)C(C)C)C(=O)N[C@H](C(=O)N[C@@H](Cc1c[nH]c2ccccc12)C(=O)O)[C@@H](C)CC` [Compound I-43]: on endothelin receptor [1], the IC50 worked out at 0.63 nM. Same read-out and setting: the value for `CC[C@H](C)[C@H](NC(=O)[C@H](CC(=O)O)NC(=O)[C@H](CC(C)C)NC(=O)[C@H](Cc1c[nH]cn1)NC(=O)[C@H](C)NC(=O)[C@H](Cc1ccccc1)NC(=O)[C@H](Cc1ccc(O)cc1)NC(=O)[C@@H](NC(=O)[C@H](Cc1c[nH]c2ccccc12)NC(=O)[C@H](CC(=O)O)NC(=O)[C@@H]1CCCN1C(=O)[C@H](C)NC(=O)[C@@H](NC(=O)CNC(=O)[C@H](CCCCN)NC(=O)[C@H](Cc1c[nH]c2ccccc12)NC(=O)[C@H](CC(N)=O)NC(=O)CN)[C@@H](C)O)C(C)C)C(=O)N[C@H](C(=O)N[C@@H](Cc1c[nH]c2ccccc12)C(=O)O)[C@@H](C)CC` [Compound I-44] was 0.29 nM.

As for `C[C@@H]1NC(=O)[C@H]([C@@H](C)O)NC(=O)CNC(=O)[C@H](Cc2c[nH]cn2)NC(=O)[C@H](Cc2c[nH]c3ccccc23)NC(=O)[C@H](CC(N)=O)NC(=O)CNC(=O)C[C@@H](C(=O)N[C@@H](Cc2c[nH]c3ccccc23)C(=O)N[C@@H](Cc2ccccc2)C(=O)N[C@@H](Cc2ccccc2)C(=O)N[C@@H](CC(N)=O)C(=O)N[C@@H](Cc2ccc(O)cc2)C(=O)N[C@@H](Cc2ccc(O)cc2)C(=O)N[C@@H](Cc2c[nH]c3ccccc23)C(=O)OCc2ccccc2)NC(=O)[C@@H]2CCCN2C1=O` [Compound I-47], the IC50 is 140 nM at endothelin receptor [1] (bovine cerebellar tissue membrane fraction) and more than 470 nM on endothelin receptor [2].

With `C[C@@H]1NC(=O)[C@H]([C@@H](C)O)NC(=O)CNC(=O)[C@H](Cc2c[nH]cn2)NC(=O)[C@H](Cc2c[nH]c3ccccc23)NC(=O)[C@H](CC(N)=O)NC(=O)CNC(=O)C[C@@H](C(=O)N[C@@H](Cc2c[nH]c3ccccc23)C(=O)N[C@@H](Cc2ccccc2)C(=O)N[C@@H](Cc2ccccc2)C(=O)N[C@@H](CC(N)=O)C(=O)N[C@@H](Cc2ccc(O)cc2)C(=O)N[C@@H](Cc2ccc(O)cc2)C(=O)N[C@@H](Cc2ccc3ccccc3c2)C(=O)O)NC(=O)[C@@H]2CCCN2C1=O` [Compound I-49], on endothelin receptor [1], the 50% inhibitory concentration (IC50) turned out to be 6.3 nM.

B1: Compound (I-18) (peptide)
peptide: GNWHGTAPDWFFNYYWW
modifications: lactam N-9
In assay [3], B1 registered an IC50 of 36 nM.

B2: Compound (I-19) (peptide)
peptide: GNWHGTAPDWFFNYYWWFFNYYW
modifications: lactam N-9
B2 displayed an IC50 in assay [3] of 370 nM.

B3: Compound (I-17) (peptide)
peptide: GNWHGTAPDWFFNYY
modifications: lactam N-9
In assay [3], B3 returned an IC50 of 54 nM.

B4: Compound (I-20) (peptide)
peptide: GNWHGTAPDWFFNYYWVYFAHLDIIW
modifications: lactam N-9
B4: in assay [3], the 50% inhibitory concentration (IC50) is 300 nM.

B5: Compound (I-49) (peptide)
peptide: GNWHGTAPDWFFNYY[2Nal]-OH
modifications: lactam N-9
The molecule B5 yielded an IC50 in assay [3] of 6.3 nM.

B6: Compound (I-3) (peptide)
chain: GNWHGTSPDWFFNYYW
modifications: not checked
Take B6: the IC50 in assay [4] came to 5 nM.

B7: Compound (I-45) (peptide)
peptide: GNWHGTAPDWFFNYY
modifications: lactam Gly 1 N-terminus to Asp 9 side chain; C-terminal carboxyl of Tyr 15 amidated with Trn, 2-(3-indolyl)ethylamine
B7: the results for the half-inhibitory concentration (IC50) in assay [3] and in assay [5] were 50 nM and 300 nM, respectively.

Values taken from patent US6642355B2, “Endothelin-antagonizing peptide” (priority 1991, dated 2003).
